# According to PMC5318439, “The Novel Toll-Like Receptor 2 Agonist SUP3 Enhances Antigen Presentation and T Cell Activation by Dendritic Cells” (Frontiers in Immunology, 2017):
# Where a SMILES comes first, the peptide text is derived from it. The star is where a group is joined. X1 = CCCCCCCCCCCCCCNC(=O)OC[C@H](C*)OC(=O)NCCCCCCCCCCCCCC; Palmitoyl = CCCCCCCCCCCCCCCC(=O)*
# Legend:
# OT-II CD4^+ T cells = assay: OT-II CD4+ T cell activation in vivo; design: species or system mice; conditions: OVA 100 µg per mouse s.c. with 2 nmol per mouse, 3 days; vs Pam3
# Protocol: Carboxyfluorescein diacetate succinimidyl ester-stained OT-II CD4^+ T cells (2 × 10^6 cells per mouse) were transferred into mice 1 day prior immunization. Then the recipients were subcutaneously (s.c.) injected with OVA alone (100 µg per mouse), or OVA mixed with SUP3 (2 nmol per mouse) or Pam3 (2 nmol per mouse) at groin. Three days after immunization, OT-II CD4^+ T cells from inguinal lymph nodes were analyzed by flow cytometry.
# Figure 5 SUP3 enhanced antigen presentation ability of CD11b^+ conventional dendritic cells (cDCs) and production of antibodies against thymus-dependent (TD) antigens. […] Three days after immunization, division of OT-II CD4^+ T cells from inguinal lymph nodes were analyzed by flow cytometry (B). Absolute numbers of proliferated OT-II CD4^+ T cells were calculated in (C). […] Cells were then thoroughly washed and cocultured with CFSE-stained OT-II CD4^+ T cells for 4 days and analyzed by flow cytometry. (D) The division of OT-II cells was measured by reduced level of CFSE-labeling. (E) Absolute numbers of proliferated T cells from (D) were calculated. (F) SUP3 (2 nmol per mouse), Pam3 (2 nmol per mouse), or PBS were i.v. injected into mice for 1 h, and splenic CD11b^+ cDCs were enriched and analyzed for CD86 expression by flow cytometry. […] The cytokines from supernatant were determined by ELISA (*p < 0.05, **p < 0.01). […]
# TLR2 = TLR2 (Homo sapiens, UniProt O60603); assay: Affinity of TLR2 agonist for TLR2; type: binding; conditions: compared with Pam3; Figure S3A
# Excerpt: Pam3 is a lipopeptide and serves as a TLR2 agonist through binding to TLR2/TLR1 heterodimer. Although Pam3 is widely used as a TLR2 agonist, some intrinsic problems remain in detailed mechanism studies and drug development. The two ester groups of Pam3 can be easily hydrolyzed in plasma, and the hydroxyl group in serine could be readily oxidized in physiological conditions (Figure S1A in Supplementary Material). […] In addition, we displaced serine residue in Pam3 with glycine residue to eliminate this chiral center (Figures S1A,B in Supplementary Material). Since the third lysine residue in Pam3 is crucial for H bonding, we kept three lysine residues in the new molecule and removed the forth lysine residue to further reduce the molecular weight of the new TLR2 agonist, (2S,5S,8S,14R,18R)-2,5,8-tris(4-aminobutyl)-4,7,10,13,21-pentaoxo-14-palmitamido-18-((tetradecylcarbamoyl)oxy)-20-oxa-16-thia-3,6,9,12,22-pentaazahexatriacontan-1-oic acid. It is termed SUP3 (Figure 1A; Figures S1A,B in Supplementary Material). Chemical characterization of SUP3 by ^1H nuclear magnetic resonance and electrospray ionization mass spectrum analysis further confirm the structure (Figures S2A,B in Supplementary Material).
# Sequence of TLR2 (O60603 21-784, species assumed): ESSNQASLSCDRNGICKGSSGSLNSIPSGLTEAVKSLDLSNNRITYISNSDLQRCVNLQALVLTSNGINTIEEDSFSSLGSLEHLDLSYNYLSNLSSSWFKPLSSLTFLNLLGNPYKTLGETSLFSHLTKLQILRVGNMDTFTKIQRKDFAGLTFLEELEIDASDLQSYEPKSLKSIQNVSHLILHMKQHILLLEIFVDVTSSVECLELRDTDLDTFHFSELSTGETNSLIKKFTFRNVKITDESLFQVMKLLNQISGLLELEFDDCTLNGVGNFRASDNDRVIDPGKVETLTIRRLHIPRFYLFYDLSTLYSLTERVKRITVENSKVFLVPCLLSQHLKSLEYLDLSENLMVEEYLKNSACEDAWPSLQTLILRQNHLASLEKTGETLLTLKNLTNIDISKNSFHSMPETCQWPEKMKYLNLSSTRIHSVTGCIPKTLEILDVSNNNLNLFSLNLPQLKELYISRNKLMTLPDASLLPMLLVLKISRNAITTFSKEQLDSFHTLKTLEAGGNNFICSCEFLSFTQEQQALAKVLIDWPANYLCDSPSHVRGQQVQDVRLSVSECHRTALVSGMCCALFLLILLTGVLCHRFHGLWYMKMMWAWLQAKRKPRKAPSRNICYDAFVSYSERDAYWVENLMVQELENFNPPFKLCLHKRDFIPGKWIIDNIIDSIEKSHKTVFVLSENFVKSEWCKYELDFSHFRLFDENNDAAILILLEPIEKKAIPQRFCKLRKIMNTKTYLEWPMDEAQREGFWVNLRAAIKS
smiles,measurement,setting,value
"CCCCCCCCCCCCCCCC(=O)N[C@@H](CSC[C@@H](COC(=O)NCCCCCCCCCCCCCC)OC(=O)NCCCCCCCCCCCCCC)C(=O)NCC(=O)N[C@@H](CCCCN)C(=O)N[C@@H](CCCCN)C(=O)N[C@@H](CCCCN)C(=O)O [SUP3, (2S,5S,8S,14R,18R)-2,5,8-tris(4-aminobutyl)-4,7,10,13,21-pentaoxo-14-palmitamido-18-((tetradecylcarbamoyl)oxy)-20-oxa-16-thia-3,6,9,12,22-pentaazahexatriacontan-1-oic acid] (Palmitoyl-C(X1)GKKK-OH)",proliferation of OT-II CD4+ T cells in draining lymph nodes,OT-II CD4^+ T cells,more proliferation of OT-II CD4^+ T cells than that with Pam3
same,affinity,TLR2,comparable with Pam3
